Measurements as given in US7915291B2, “Hepatitis C virus inhibitors” (Bristol-Myers Squibb Company, priority 2002, dated 2011).
Read-outs that look alike come from different tables or passages of the source.

What was measured:
[1] = molecular target: HCV NS3/4A protease complex, BMS strain (UniProt P27958, C1454S/C1711G, species not given/STRAIN_BMS); assay: Recombinant HCV NS3/4A protease complex FRET peptide assay (BMS strain); assay type: biochemical, HCV genotype 1a
Excerpt: Recombinant HCV NS3/4A Protease Complex FRET Peptide Assay
The purpose of this in vitro assay was to measure the inhibition of HCV NS3 protease complexes, derived from the BMS, H77C or J416S strains, as described below, by compounds of the present invention.
Serum from an HCV-infected patient was obtained from Dr. T. Wright, San Francisco Hospital. An engineered full-length cDNA (compliment deoxyribonucleic acid) template of the HCV genome (BMS strain) was constructed from DNA fragments obtained by reverse transcription-PCR(RT-PCR) of serum RNA (ribonucleic acid) and using primers selected on the basis of homology between other genotype 1a strains.
The BMS, H77C and J4L6S strains were used for production of recombinant NS3/4A protease complexes. […] Briefly, a three-lysine solubilizing tail was added at the 3′-end of the NS4A coding region. […] Briefly, NS3/4A expression was induced with 0.5 mM Isopropyl β-D-1-thiogalactopyranoside (IPTG) for 22 hr at 20° C. […] The crude protein extract was loaded on a Nickel—Nitrilotriacetic acid (Ni-NTA) column pre-equilibrated with buffer B (25 mM HEPES, pH8.0, 20% glycerol, 500 mM NaCl, 0.5% Triton-X100, 15 mM imidazole, 5 mM βME). The sample was loaded at a flow rate of 1 mL/min. The column was washed with 15 column volumes of buffer C (same as buffer B except with 0.2% Triton-X100). The protein was eluted with 5 column volumes of buffer D (same as buffer C except with 200 mM Imidazole).
NS3/4A protease complex-containing fractions were pooled and loaded on a desalting column Superdex-S200 pre-equilibrated with buffer D (25 mM HEPES, pH7.5, 20% glycerol, 300 mM NaCl, 0.2% Triton-X100, 10 mM βME). Sample was loaded at a flow rate of 1 mL/min. NS3/4A protease complex-containing fractions were pooled and concentrated to approximately 0.5 mg/ml.
The enzyme was stored at −80° C., thawed on ice and diluted prior to use in assay buffer. […] The sequence of this peptide is loosely based on the NS4A/NS4B natural cleavage site except there is an ester linkage rather than an amide bond at the cleavage site. The peptide substrate was incubated with one of the three recombinant NS3/4A complexes, in the absence or presence of a compound of the present invention, and the formation of fluorescent reaction product was followed in real time using a Cytofluor Series 4000.
The reagents were as follow: HEPES and Glycerol (Ultrapure) were obtained from GIBCO-BRL. Dimethyl Sulfoxide (DMSO) was obtained from Sigma. β-Mercaptoethanol was obtained from Bio Rad.
Substrate: 2 μM final concentration (from a 2 mM stock solution in DMSO stored at −20° C.). HCV NS3/4A type 1a (1b), 2-3 nM final concentration (from a 5 μM stock solution in 25 mM HEPES, pH7.5, 20% glycerol, 300 mM NaCl, 0.2% Triton-X100, 10 mM βME).
The assay was performed in a 96-well polystyrene black plate from Falcon. Each well contained 25 μl NS3/4A protease complex in assay buffer, 50 μof a compound of the present invention in 10% DMSO/assay buffer and 25 μl substrate in assay buffer. A control (no compound) was also prepared on the same assay plate. The enzyme complex was mixed with compound or control solution for 1 min before initiating the enzymatic reaction by the addition of substrate. The assay plate was read immediately using the Cytofluor Series 4000 (Perspective Biosystems). The instrument was set to read an […] at 25° C. Reactions were generally followed for approximately 15 minutes.
The percent inhibition was calculated with the following equation: 100−[(δFinh/δFcon)×100] where δF is the change in fluorescence over the linear range of the curve.

[2] = system: HCV replicon in Huh7 cells; assay: HCV replicon cell-based assay; parameters: species or system HCV strain 1B; details: Hepatitis C virus, Huh-7; HCV replicon, Huh7 cells; read-out: EC50 range
Excerpt: HCV Replicon Cell-based Assay
This system enabled us to evaluate the effects of our HCV Protease compounds on HCV RNA replication. Briefly, using the HCV strain 1B sequence described in the Lohmann paper (Assession number:AJ238799), an HCV cDNA was generated encoding the 5′ internal ribosome entry site (IRES), the neomycin resistance gene, the EMCV (encephalomyocarditis virus)-IRES and the HCV nonstructural proteins, NS3-NS5B, and 3′ non-translated region (NTR). In vitro transcripts of the cDNA were transfected into the human hepatoma cell line, Huh7. […] Resulting cell lines were characterized for positive and negative strand RNA production and protein production over time.
Huh7 cells, constitutively expressing the HCV replicon, were grown in Dulbecco's Modified Eagle Media (DMEM) containing 10% Fetal calf serum (FCS) and 1 mg/ml G418 (Gibco-BRL). Cells were seeded the night before (1.5×10^4 cells/well) in 96-well tissue-culture sterile plates. Compound and no compound controls were prepared in DMEM containing 4% FCS, 1:100 Penicillin/Streptomysin, 1:100 L-glutamine and 5% DMSO in the dilution plate (0.5% DMSO final concentration in the assay). Compound/DMSO mixes were added to the cells and incubated for 4 days at 37° C. After 4 days, plates were rinsed thoroughly with Phosphate-Buffered Saline (PBS) (3 times 150 μl). The cells were lysed with 25 μl of a lysis assay reagent containing the FRET peptide (RET S1, as described for the in vitro enzyme assay). The lysis assay reagent was made from 5× cell Luciferase cell culture lysis reagent(Promega #E153A) diluted to 1× with distilled water, NaCl added to 150 mM final, the FRET peptide diluted to 10 μM final from a 2 mM stock in 100% DMSO. The plate was then placed into the Cytofluor 4000 instrument which had been set to 340 nm excitation/490 emission, automatic mode for 21 cycles and the plate read in a kinetic mode. EC50 determinations were carried out as described for the IC50 determinations.
Cells were lyzed using the Rneasy kit (Qiagen). […] All primers were designed with ABI Prism 7700 software and obtained from Biosearch Technologies, Novato, Calif. Samples containing known concentrations of HCV RNA transcript were run as standards. Using the following cycling protocol (50° C., 30 min; 95° C., 5 min; 40 cycles of 95° C., 15 sec, 60° C., 1 min), HCV RNA expression was quantitated as described in the Perkin Elmer manual using the ABI Prism 7700 Sequence Detector.

[3] = NS3/4A BMS strain; read-out: IC50 range

For `C=CC1C[C@]1(NC(=O)[C@@H]1C[C@@H](COc2ccnc(-c3ccsc3)c2)CN1C(=O)[C@@H](NC(=O)OC)C(C)(C)C)C(=O)NS(=O)(=O)C1CC1` (stereo partly shown) [Compound 349], the IC50 [1, 3] was 1000 to 10000 nM.

Work on `C=CC1CC1(NC(=O)[C@@H]1C[C@@H](Oc2ccnc(N3CCOCC3)n2)CN1C(=O)[C@@H](NC(=O)OC)C(C)(C)C)C(=O)NS(=O)(=O)C1CC1` (stereo partly shown) [Compound 343] yielded an IC50 [1, 3] of 1000 to 10000 nM.

For `C=CC1CC1(NC(=O)[C@@H]1C[C@@H](Oc2ccnc(N3Cc4ccccc4C3)n2)CN1C(=O)[C@@H](NC(=O)OC)C(C)(C)C)C(=O)NS(=O)(=O)C1CC1` (stereo partly shown) [Compound 342], the IC50 [1, 3] was 1000 to 10000 nM.

Compound `C=C[C@@H]1C[C@]1(NC(=O)[C@@H]1C[C@@H](Oc2cccc3ccccc23)CN1C(=O)[C@@H](NC(=O)OC(C)(C)C)C(C)(C)C)C(=O)NS(C)(=O)=O` [Compound 470] has an IC50 [1, 3] of 100 to 1000 nM.

`C=CC1C[C@]1(NC(=O)[C@@H]1C[C@@H](COc2cccc(Br)n2)CN1C(=O)[C@@H](NC(=O)OC)C(C)(C)C)C(=O)NS(=O)(=O)C1CC1` (stereo partly shown) [Compound 352] was tested, and the IC50 [1, 3] was 10000 to 100000 nM.

`C=C[C@@H]1C[C@]1(NC(=O)C1C[C@@H](Oc2nc(C3CC3)nc3cc(OC)c(OC)cc23)CN1C(=O)[C@@H](N)C(C)(C)C)C(=O)NS(=O)(=O)C1CC1` (stereo partly shown) [Compound 49] was tested, and the IC50 [1, 3] was 1000 to 10000 nM.

Compound `C=CC1CC1(NC(=O)[C@@H]1C[C@@H](Sc2ccc3ccccc3c2)CN1C(=O)[C@@H](NC(=O)OC(C)(C)C)C(C)(C)C)C(=O)NS(C)(=O)=O` (stereo partly shown) [Compound 452] has an IC50 [1, 3] of 1000 to 10000 nM.

With `C=C[C@H]1C[C@@]1(NC(=O)[C@@H]1C[C@@H](Oc2cccc3ccccc23)CN1C(=O)[C@@H](NC(=O)OC(C)(C)C)C(C)(C)C)C(=O)NS(C)(=O)=O` [Compound 471] the IC50 [1, 3] was 1000 to 10000 nM.

For `C=CC1CC1(NC(=O)C1CC(Oc2nccc3cc(OC)ccc23)CN1C(=O)C(NC)C(C)CC)C(=O)NS(=O)(=O)C1CC1` (stereo not shown) [Compound 99], the IC50 ([1]; read-out: IC50 range; NS3/4A BMS strain) was 1000 to 10000 nM.

`C=C[C@@H]1C[C@]1(NC(=O)[C@@H]1C[C@@H](Oc2nccc3cc(OC)ccc23)CN1C(=O)[C@@H](NC(=O)N[C@@H](C)COC)C(C)(C)C)C(=O)NS(=O)(=O)C1CC1` [Compound 153] showed an EC50 [2] of less than 100 nM.

`C=CC1C[C@]1(NC(=O)[C@@H]1C[C@@H](COc2cccc(-c3ccccc3)n2)CN1C(=O)[C@@H](NC(=O)OC)C(C)(C)C)C(=O)NS(=O)(=O)C1CC1` (stereo partly shown) [Compound 354] showed an IC50 [1, 3] of 1000 to 10000 nM.

`C=C[C@@H]1C[C@]1(NC(=O)[C@@H]1C[C@@H](Oc2ccnc3cc(OC)ccc23)CN1C(=O)[C@@H](NC(=O)OC(C)(C)C)C(C)(C)C)C(=O)NS(=O)(=O)C1CC1` [Compound 376] showed an EC50 [2] of less than 100 nM.

`C=CC1C[C@]1(NC(=O)[C@@H]1C[C@@H](COc2ccnc(Br)c2)CN1C(=O)[C@@H](NC(=O)OC)C(C)(C)C)C(=O)NS(=O)(=O)C1CC1` (stereo partly shown) [Compound 348] was tested, and the IC50 [1, 3] was 10000 to 100000 nM.

`C=CC1CC1(NC(=O)[C@@H]1C[C@@H](Oc2cncc(Br)c2)CN1C(=O)[C@@H](NC(=O)OC(C)(C)C)C(C)(C)C)C(=O)NS(=O)(=O)C1CC1` (stereo partly shown) [Compound 423] was tested, and the IC50 [1, 3] was 100 to 1000 nM.

With `C=CC1C[C@]1(NC(=O)[C@@H]1C[C@@H](COc2ccnc3ccccc23)CN1C(=O)[C@@H](NC(=O)OC)C(C)(C)C)C(=O)NS(=O)(=O)C1CC1` (stereo partly shown) [Compound 344] the IC50 [1, 3] was 100 to 1000 nM.

`C=CC1C[C@]1(NC(=O)[C@@H]1C[C@@H](COc2cccc(-c3ccsc3)n2)CN1C(=O)[C@@H](NC(=O)OC)C(C)(C)C)C(=O)NS(=O)(=O)C1CC1` (stereo partly shown) [Compound 353] gave an IC50 [1, 3] of 10000 to 100000 nM.

`C=CC1CC1(NC(=O)[C@@H]1C[C@@H](Oc2ccnc(N3CCc4ccccc4C3)n2)CN1C(=O)[C@@H](NC(=O)OC)C(C)(C)C)C(=O)NS(=O)(=O)C1CC1` (stereo partly shown) [Compound 341] showed an IC50 [1, 3] of 1000 to 10000 nM.

In the case of `C=CC1CC1(NC(=O)[C@@H]1C[C@@H](Sc2cccc3ccccc23)CN1C(=O)[C@@H](NC(=O)OC(C)(C)C)C(C)(C)C)C(=O)NS(C)(=O)=O` (stereo partly shown) [Compound 451], the IC50 [1, 3] is reported as 1000 to 10000 nM.

`C=C[C@@H]1C[C@]1(NC(=O)[C@@H]1C[C@@H](Oc2nccc3c(O)cccc23)CN1C(=O)[C@@H](NC(=O)OC(C)(C)C)C(C)(C)C)C(=O)NS(=O)(=O)C1CC1` [Compound 256] was tested, and the IC50 [1, 3] was 10000 to 100000 nM.

`C=CC1C[C@]1(NC(=O)[C@@H]1C[C@@H](COc2ccnc(-c3ccoc3)c2)CN1C(=O)[C@@H](NC(=O)OC)C(C)(C)C)C(=O)NS(=O)(=O)C1CC1` (stereo partly shown) [Compound 351] gave an IC50 [1, 3] of 1000 to 10000 nM.

Compound `C=CC1C[C@]1(NC(=O)[C@@H]1C[C@@H](COc2cncc(Br)c2)CN1C(=O)[C@@H](NC(=O)OC)C(C)(C)C)C(=O)NS(=O)(=O)C1CC1` (stereo partly shown) [Compound 346] has an IC50 [1, 3] of 1000 to 10000 nM.

Work on `C=CC1C[C@]1(NC(=O)[C@@H]1C[C@@H](Oc2nc(-c3cnc(N(C)C)s3)cc3cc(OC)ccc23)CN1C(=O)[C@@H](NC(=O)OC(C)(C)C)C(C)(C)C)C(=O)NS(=O)(=O)C1CC1` (stereo partly shown) [Compound 331] yielded an IC50 [1, 3] of less than 100 nM.

Work on `C=CC1C[C@]1(NC(=O)[C@@H]1C[C@@H](Oc2nc(-c3cnccn3)c(OC)c3ccccc23)CN1C(=O)[C@@H](NC(=O)OC(C)(C)C)C(C)(C)C)C(=O)NS(=O)(=O)C1CC1` (stereo partly drawn) [Compound 231, BOCNH-P3(L-t-BuGly)-P2[(4R)-(3-pyrazine-2-yl-4-methoxy -isoquinolin-1-oxo)-S-proline]-P1(1R,2S VinylAcca)-CONHSO2Cyclopropane] yielded an IC50 [1, 3] of 1000 to 10000 nM.

Work on `C=C[C@@H]1C[C@]1(NC(=O)C1C[C@@H](Oc2nc(C(F)(F)F)nc3cc(OC)c(OC)cc23)CN1C(=O)[C@@H](N)C(C)(C)C)C(=O)NS(=O)(=O)C1CC1` (stereo partly shown) [Compound 52] yielded an IC50 [1, 3] of 1000 to 10000 nM.

`C=CC1C[C@]1(NC(=O)[C@@H]1C[C@@H](Oc2nc(Cl)c(OC)c3ccccc23)CN1C(=O)[C@@H](NC(=O)OC(C)(C)C)C(C)(C)C)C(=O)NS(=O)(=O)C1CC1` (stereo partly drawn) [Compound 245, BOCNH-P3(L-t-BuGly)-P2[(4R)-(3-chloro-4-methoxyisoquinoline-1-oxo)-S-proline]-P1(1R,2S VinylAcca)-CONHSO2Cyclopropane] was tested, and the IC50 [1, 3] was 100 to 1000 nM.
